Measurements taken from article PMC8875629, “Novel Antioxidant Peptides from Crassostrea Hongkongensis Improve Photo-Oxidation in UV-Induced HaCaT Cells” (Marine Drugs, 2022).

Key:
[1] = tested on: UV-irradiated HaCaT cells; assay: Cell viability of UV-irradiated HaCaT cells after pretreatment, CCK-8; format: cell-based, human; settings: pretreatment one day, UV-irradiation
Procedure: For UV-irradiation (Combined UVA and UVB irradiation), HaCaT cells were cultured in 6-well plates (3 × 10^5 cells/well), 12-well plates (1 × 10^5 cells/well), and 96-well plates (1 × 10^4 cells/well) for one day. When cells sufficiently adhered, the medium was removed and cells were washed twice with PBS. Each well contained a thin layer of PBS to keep cell surfaces from drying. The lids of culture plates were opened, and the plates were placed under a UV lamp emitting both UVA (365 nm) and UVB (310 nm) light for 8 min. Irradiation dose was calculated as: Dose (mJ/cm^2) = Exposure time (s) × Intensity (mW/cm^2). After irradiation, cells were washed with warm PBS and incubated with serum-free DMEM for one day or longer.

HaCaT cells = assay: Cytotoxicity in HaCaT cells, CCK-8; settings: serum-free medium
Procedure: Cells were cultured in Dulbecco’s modified Eagle’s medium (DMEM; Gibco, Thermo Fisher Scientific, Waltham, MA, USA) supplemented with 10% heat-inactivated fetal bovine serum (FBS; Gibco) and 1% antibiotics [100 U/mL penicillin and 100 µg/mL streptomycin (Invitrogen, Thermo Fisher Scientific, Waltham, MA, USA)] at 37 °C in a humidified 5% CO2 incubator (SANYO, Ōsaka, JPN). HaCaT cells were subcultured when they reached 80% to 90% confluence. Cells were cultured for 12 h in 10% heat-inactivated FBS before being used for experiments. When required, HaCaT cells were treated with OPs in a serum-free medium and incubated under the same conditions (Figure 15B).
Cell viability was evaluated by measuring the dehydrogenase-catalyzed formation of a yellow dye in living cells. In the presence of electronic coupling reagents, WST-8 (tetrazolium salt 2-(2-methoxy-4-nitrophenyl)-3-(4-nitrophenyl)-5-(2,4-disulfophenyl) -2H-tetrazolium, monosodium salt (CCK-8)) is reduced to formazan, a yellow dye, by dehydrogenase.
Cells were seeded on 96-well plates at a density of 1 × 10^4 cells/well; viability was measured 24 h after UV-irradiation. […] Absorbance was measured using a microplate reader (Varioskan Flash; Thermo, Waltham, MA, USA) at λ = 450 nm. […] Cytotoxicity and optimal concentrations of OPs were determined using similar steps.

MMP-1 = MMP-1 expression in UV-irradiated HaCaT cells, ELISA; format: cell-based, human
Procedure: PINP and MMP-1 levels were measured in cell culture media using enzyme-linked immunoassay (ELISA) kits (Yutong Biological Technology Co., Changzhou, China). All experiments were conducted according to the manufacturer’s instructions. Purified Human MMP-1 antibody is coated in microtiter plate wells, making solid-phase antibodies. Then add the sample to the wells, a Combined antibody which With HRP labeled, become antibody-antigen-enzyme-antibody complex, after washing Completely, Add TMB substrate solution, TMB substrate becomes blue color At HRP enzyme-catalyzed, the reaction is terminated by the addition of a sulphuric acid solution and the color change is measured spectrophotometrically at a wavelength of 450 nm. The concentration of MMP-1 in the samples is then determined by comparing the O.D. of the samples to the standard curve. The content of PINP was determined on the same principles.

## TALAIDAIINQK [Peptide III, synthesized peptide identified in OP5-3]
[1]
  Effect on survival of UV-irradiated HaCaT cells: beneficial effects

## GVAMNPVDHPHGGGEGR [Peptide V]
HaCaT cells
  Concentration without cytotoxicity: 0 to 200000 ng/mL

## LICIVPK [Peptide VI, synthesized peptide identified in OP5-3]
HaCaT cells
  Concentration without cytotoxicity: 0 to 600000 ng/mL
[1]
  Effect on survival of UV-irradiated HaCaT cells: beneficial effects

## AIVAEVNEAAK [Peptide I, synthesized peptide identified in OP5-3]
MMP-1
  Abnormal upregulation of MMP-1 (synthetic peptides): most prominent effect
